Measured values: patent publication US20230285397A1, “EGFR INHIBITOR” (TAIHO PHARMACEUTICAL CO., LTD., priority 2020, published 2023)

Experiments:
[1] = tested on: H1975-EGFRinsSVD cell line; assay: Antitumor effect confirmation test (in vivo) on subcutaneous transplantation models; set-up: species or system nude mouse (BALB/cAJcl-nu/nu); details: Examples 2, 11 and 12 orally at 25, 25 and 50 mg/kg/day, Days 1-14; Dunnett test P<0.001
Procedure: When the tumor volumes of nude mice having tumor engraftment became on the order of 100 to 200 mm^3, the mice were assigned to groups each involving 6 animals by random stratification such that the average tumor volume was equal among the groups.
The test compound used was the compounds of Examples 2, 11, and 12, and a 0.5% HPMC aqueous solution was used as a control. The compounds of Examples 2, 11 and 12 were orally administered at doses of 25 mg/kg/day, 25 mg/kg/day and 50 mg/kg/day, respectively.
Each test compound or the control was orally administered every day for 14 days (Days 1-14) from the day following the grouping.
To compare the transition of tumor growth over time by the administration of each test compound, a tumor volume (which is also referred to as “TV” below) was measured at a frequency of twice a week over time. […] A body weight change percentage is also referred to as “BWC” below.
BWCn(%)=((body weight on n^th day)−(body weight on grouping day)]/[(body weight on grouping day)×100

[2] = Evaluation of oral absorbability; type: in vivo; details: BALB/cA mice, 50 mg/kg/day
Procedure: The compound of the present invention was suspended or dissolved in 0.5% HPMC aqueous solution and 0.1 N hydrochloric acid, and the obtained suspension or solution was orally administered to BALB/cA mice (CLEA Japan, Inc.) at a dose of 50 mg/kg/day. At 0.5, 1, 2, 4 and 6 hours after completion of the oral administration, blood was collected from the facial vein over time, so as to obtain plasma. The concentration of the compound in the obtained plasma was measured by LC-MS/MS, and the oral absorbability of the present compound was evaluated.

[3] = Evaluation of brain penetration properties; type: in vivo; details: BALB/cA mice, oral, 50 mg/kg/day, 0.5 hours
Procedure: The compound of the present invention was suspended or dissolved in 0.5% HPMC aqueous solution and 0.1 N hydrochloric acid, and the obtained suspension or solution was orally administered to BALB/cA mice (CLEA Japan, Inc.) at a dose of 50 mg/kg/day. At 0.5 hours after completion of the oral administration, blood was collected from the facial vein, and whole brain was then excised, so as to obtain plasma and brain samples. Water was added to the obtained brain sample in 3 times the volume of the brain sample, and the resultant was then homogenized using an ultrasonic homogenizer, so as to obtain a brain homogenate. The concentration of the compound in the obtained plasma and brain homogenate was measured by LC-MS/MS, and the brain penetration properties of the present compound were evaluated from the brain/plasma concentration of the compound.

EGFR [D770_N771insNPG] = molecular target: T1, EGFR [D770_N771insNPG] (Homo sapiens, UniProt P00533, INS772GNP); assay: Phosphorylation activity inhibitory effect (in vitro), kinase assay at Carna Biosciences; type: biochemical; details: ATP near Km
T1 construct: fused on or other part: Probably an N-terminal GST tag (Carna product)
T1 sequence (P00533 with tags, fused parts or gaps INS772GNP): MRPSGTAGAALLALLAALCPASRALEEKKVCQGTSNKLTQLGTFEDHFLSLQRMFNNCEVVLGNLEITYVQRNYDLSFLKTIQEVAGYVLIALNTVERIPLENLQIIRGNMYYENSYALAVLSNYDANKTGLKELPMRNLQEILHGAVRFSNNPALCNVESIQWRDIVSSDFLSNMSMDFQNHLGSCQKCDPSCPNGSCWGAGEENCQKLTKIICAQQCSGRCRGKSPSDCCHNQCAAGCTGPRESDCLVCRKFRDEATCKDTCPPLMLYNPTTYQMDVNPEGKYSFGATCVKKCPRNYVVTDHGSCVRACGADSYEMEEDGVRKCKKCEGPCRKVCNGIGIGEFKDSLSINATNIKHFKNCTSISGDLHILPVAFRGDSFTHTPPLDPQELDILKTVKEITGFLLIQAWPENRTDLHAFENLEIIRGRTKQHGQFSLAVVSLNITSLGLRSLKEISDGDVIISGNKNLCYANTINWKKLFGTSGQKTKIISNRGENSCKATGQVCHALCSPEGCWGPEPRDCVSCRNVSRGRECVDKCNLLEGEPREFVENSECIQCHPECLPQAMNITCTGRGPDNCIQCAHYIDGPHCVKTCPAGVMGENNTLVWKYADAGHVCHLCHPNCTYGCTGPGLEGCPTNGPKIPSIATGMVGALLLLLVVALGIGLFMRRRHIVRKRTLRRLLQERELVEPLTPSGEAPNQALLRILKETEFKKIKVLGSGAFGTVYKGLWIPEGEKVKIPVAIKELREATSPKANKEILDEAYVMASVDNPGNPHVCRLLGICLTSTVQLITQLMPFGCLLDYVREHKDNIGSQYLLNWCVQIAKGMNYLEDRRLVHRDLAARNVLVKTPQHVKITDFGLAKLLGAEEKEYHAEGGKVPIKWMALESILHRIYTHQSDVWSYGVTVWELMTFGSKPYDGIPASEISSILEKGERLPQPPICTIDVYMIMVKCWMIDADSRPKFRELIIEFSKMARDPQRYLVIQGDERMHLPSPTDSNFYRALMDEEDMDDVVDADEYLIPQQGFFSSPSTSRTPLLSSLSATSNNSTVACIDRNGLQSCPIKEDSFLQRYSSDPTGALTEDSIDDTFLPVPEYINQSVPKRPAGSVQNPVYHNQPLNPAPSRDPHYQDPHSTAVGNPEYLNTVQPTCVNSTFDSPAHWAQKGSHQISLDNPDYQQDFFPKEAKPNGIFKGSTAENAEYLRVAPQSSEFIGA
Procedure: The measurement of the in vitro inhibitory activity of a compound against wild-type and mutant EGFR was outsourced to Carna Biosciences, Inc. (Kinase Profiling Book, https://www.carnabio.com/japanese/product/search.cgi?mode=profiling).
Specifically, first, the compound of the present invention was diluted stepwise with dimethyl sulfoxide (DMSO). […] To the reaction solution, Termination Buffer was added, so as to terminate the kinase reaction. Finally, using LabChip™ EZ Reader II (PerkinElmer), an unphosphorylated substrate peptide (S) and a phosphorylated peptide (P) were separated and detected according to microchannel capillary electrophoresis.

SMILES | Antitumor effect: tumor volume (TV) on Day 15 compared with the control group [1] | Attenuation of oral absorbability relative to the compound of the present invention [2] | Attenuation of brain concentration relative to the compound of the present invention [3] | IC50 (EGFR [D770_N771insNPG]) [nM]
C=CC(=O)N1C[C@H](n2c(C#CC(C)(C)C)c(C(=O)N[C@H](C)c3ccccc3)c3c(N)ncnc32)C[C@@H]1C [Example 12, 7-((3R,5S)-1-acryloyl-5-methylpyrrolidin-3-yl)-4-amino-6-(3,3-dimethylbut-1-yn-1-yl)-N—((R)-1-phenylethyl)-7H-pyrrolo[2,3-d]pyrimidine-5-carboxamide] | excellent antitumor effects | – | – | –
C=CC(=O)N1C[C@H](n2nc(C(=O)Nc3ccc(CC(=O)N(C)C)c(C)c3C)c3c(N)ncnc32)C[C@@H]1C [Comparative Example 2, 1-((3R,5S)-1-acryloyl-5-methylpyrrolidin-3-yl)-4-amino-N-(4-(2-(dimethylamino)-2-oxoethyl)-2,3-dimethylphenyl)-1H-pyrazolo[3,4-d]pyrimidine-3-carboxamide] | – | more than 4 times | more than 80 times | –
C=CC(=O)N1C[C@H](n2c(C#CC)c(C(=O)N[C@H](C)c3ccccc3)c3c(N)ncnc32)C[C@@H]1C [Example 2, 7-((3R,5S)-1-acryloyl-5-methylpyrrolidin-3-yl)-4-amino-N—((R)-1-phenylethyl)-6-(prop-1-yn-1-yl)-7H-pyrrolo[2,3-d]pyrimidine-5-carboxamide] | excellent antitumor effects | – | – | –
C=CC(=O)N1C[C@H](n2c(C#CC3CC3)c(C(=O)N[C@H](C)c3ccccc3)c3c(N)ncnc32)C[C@@H]1C [Example 11, 7-((3R,5S)-1-acryloyl-5-methylpyrrolidin-3-yl)-4-amino-6-(cyclopropylethynyl)-N—((R)-1-phenylethyl)-7H-pyrrolo[2,3-d]pyrimidine-5-carboxamide] | excellent antitumor effects | – | – | 0.55
